Laboratory results reported in patent publication US7057012B1, “PTH functional domain conjugate peptides, derivatives thereof and novel tethered ligand-receptor molecules” (The General Hospital Corporation, priority 1998, dated 2006).
Each block holds one substance with its values, some of them ahead of it.

What was measured:
AC = details: cited from earlier work
the receptor = biological target: T1, the receptor (Homo sapiens, UniProt Q03431); details: cited from earlier work
T1 sequence (Q03431 27-593): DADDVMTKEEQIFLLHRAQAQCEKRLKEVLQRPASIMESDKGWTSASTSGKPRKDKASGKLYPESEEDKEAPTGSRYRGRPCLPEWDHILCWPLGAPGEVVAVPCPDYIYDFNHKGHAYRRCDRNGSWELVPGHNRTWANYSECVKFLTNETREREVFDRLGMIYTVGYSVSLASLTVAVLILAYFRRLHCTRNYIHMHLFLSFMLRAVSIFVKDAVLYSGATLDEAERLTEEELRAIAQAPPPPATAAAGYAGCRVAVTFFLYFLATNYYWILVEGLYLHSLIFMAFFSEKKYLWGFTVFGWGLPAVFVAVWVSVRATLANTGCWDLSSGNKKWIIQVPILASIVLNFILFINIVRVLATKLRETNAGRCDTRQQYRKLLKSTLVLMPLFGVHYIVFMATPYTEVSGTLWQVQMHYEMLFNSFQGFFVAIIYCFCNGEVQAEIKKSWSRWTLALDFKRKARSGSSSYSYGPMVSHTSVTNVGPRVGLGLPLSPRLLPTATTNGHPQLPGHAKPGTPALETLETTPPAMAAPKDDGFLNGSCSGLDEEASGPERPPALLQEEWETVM

rat PTH-1 receptor = biological target: T2, rat PTH-1 receptor (Rattus norvegicus, UniProt P25961); details: CHO cells expressing the cloned rat PTH-1 receptor; cited from earlier work
T2 construct: host or cells: CHO cells
T2 sequence (P25961 27-591): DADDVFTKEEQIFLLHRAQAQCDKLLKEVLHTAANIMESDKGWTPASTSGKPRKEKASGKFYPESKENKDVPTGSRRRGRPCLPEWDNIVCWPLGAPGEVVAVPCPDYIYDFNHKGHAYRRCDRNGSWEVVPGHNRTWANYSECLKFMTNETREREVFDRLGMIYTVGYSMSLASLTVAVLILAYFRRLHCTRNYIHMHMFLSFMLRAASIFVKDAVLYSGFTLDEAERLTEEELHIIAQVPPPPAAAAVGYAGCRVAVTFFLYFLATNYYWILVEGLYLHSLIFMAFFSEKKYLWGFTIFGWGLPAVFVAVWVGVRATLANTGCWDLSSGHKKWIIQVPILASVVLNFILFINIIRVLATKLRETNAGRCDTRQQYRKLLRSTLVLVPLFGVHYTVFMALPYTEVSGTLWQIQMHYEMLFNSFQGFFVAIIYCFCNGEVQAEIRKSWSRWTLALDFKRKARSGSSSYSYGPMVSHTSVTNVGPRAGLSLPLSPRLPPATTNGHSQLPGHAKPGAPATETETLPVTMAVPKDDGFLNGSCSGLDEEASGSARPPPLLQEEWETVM

hP1r-de1NT = biological target: T3, hP1r-de1NT (Homo sapiens, UniProt Q03431); assay: Q-PTH(1–34) cAMP dose-response, COS-7 cells expressing hP1R-delNT; format: cell-based
T3 construct: expressed in transfected cells; host or cells: COS-7 cells, transient, DEAE-dextran
T3 sequence (Q03431 with tags, fused parts or gaps): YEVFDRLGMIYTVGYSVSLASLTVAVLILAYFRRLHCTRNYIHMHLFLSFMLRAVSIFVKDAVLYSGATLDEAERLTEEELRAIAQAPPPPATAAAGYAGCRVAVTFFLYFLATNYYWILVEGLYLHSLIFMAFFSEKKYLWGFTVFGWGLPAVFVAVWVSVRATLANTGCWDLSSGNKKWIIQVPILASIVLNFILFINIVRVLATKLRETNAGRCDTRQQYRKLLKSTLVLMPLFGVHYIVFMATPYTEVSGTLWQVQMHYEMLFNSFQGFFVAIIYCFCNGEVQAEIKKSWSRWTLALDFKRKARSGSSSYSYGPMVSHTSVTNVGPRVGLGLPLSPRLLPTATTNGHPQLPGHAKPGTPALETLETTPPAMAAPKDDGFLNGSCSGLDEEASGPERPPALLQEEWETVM
Experimental: (§1) Cell Culture: COS-7 cells were cultured at 37° C. in T-75 flasks ([…] in Dulbecco's modified Eagle's medium (DMEM) supplemented with fetal bovine serum (10%), penicillin G (20 units/ml), streptomycin sulfate (20 μg/ml) and amphotericin B (0.05 μg/ml) in a humidified atmosphere containing 5% CO2. Cells were sub-cultured in 24-well plates and, when confluent, were treated with fresh media and shifted to 33° C. for 12 to 24 h prior to the assay (Bergwitz, C., et al., J. Biol. Chem. 272:28861–28868 (1997); Abell, A., et al., J. Biol. Chem. 271:4518–4527 (1996)).
(§2) PTH Receptor mutagenesis and COS-7 cell expression: The pcDNA-1-based plasmid encoding the intact HPTH-1 receptor (HK-WT in reference (Schipani, E., et al., Endocrinol. 132:2157–2165 (1993)) and herein called hP1R-WT) was used for studies in COS-7 cells. The truncated human PTH-1 receptor (hP1R-de1Nt) (FIG. 18) was constructed from the HK-WT plasmid by oligonucleotide-directed mutagenesis (Kunkel, T. A., Proc. Natl. Acad. Sci. USA 82:488–492 (1985)). […]
(§3) cAMP Stimulation: Stimulation of cells with peptide analogs was performed in 24-well plates. […] The cAMP content of the diluted lysate was determined by radioimmunoassay.

hP1R-Tether constructs = assay: Q-PTH(1–34) cAMP stimulation of the hP1R-Tether constructs and alanine mutants in COS-7 cells; format: cell-based, human
Experimental: as §1, §2, §3

hP1R-Tether(1–9) = biological target: T4, hP1R-Tether(1–9) (Homo sapiens, UniProt Q03431); assay: Q-PTH(1–34) cAMP dose-response, COS-7 cells expressing hP1R-Tether(1–9); format: cell-based
T4 construct: expressed in transfected cells; host or cells: COS-7 cells, transient, DEAE-dextran
T4 sequence (Q03431 with tags, fused parts or gaps): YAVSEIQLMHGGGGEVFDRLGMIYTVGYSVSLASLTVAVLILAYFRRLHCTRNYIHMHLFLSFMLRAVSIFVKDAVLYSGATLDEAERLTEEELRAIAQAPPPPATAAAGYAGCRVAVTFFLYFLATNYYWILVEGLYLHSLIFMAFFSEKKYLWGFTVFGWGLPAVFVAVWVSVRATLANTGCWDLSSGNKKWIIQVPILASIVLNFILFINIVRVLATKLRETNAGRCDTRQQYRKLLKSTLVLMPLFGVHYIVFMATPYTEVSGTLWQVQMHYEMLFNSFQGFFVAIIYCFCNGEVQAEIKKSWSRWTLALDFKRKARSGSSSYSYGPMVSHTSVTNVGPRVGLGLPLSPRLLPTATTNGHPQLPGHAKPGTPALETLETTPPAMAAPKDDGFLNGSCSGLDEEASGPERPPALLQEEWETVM
Experimental: as §1, §2, §3

hP1R-[R^11]-Tether(1–11) = biological target: T5, hP1R-[R^11]-Tether(1–11) (Homo sapiens, UniProt Q03431); assay: Q-PTH(1–34) cAMP dose-response, COS-7 cells expressing hP1R-[R11]-Tether(1–11); format: cell-based
T5 construct: expressed in transfected cells; host or cells: COS-7 cells, transient, DEAE-dextran
T5 sequence (Q03431 with tags, fused parts or gaps): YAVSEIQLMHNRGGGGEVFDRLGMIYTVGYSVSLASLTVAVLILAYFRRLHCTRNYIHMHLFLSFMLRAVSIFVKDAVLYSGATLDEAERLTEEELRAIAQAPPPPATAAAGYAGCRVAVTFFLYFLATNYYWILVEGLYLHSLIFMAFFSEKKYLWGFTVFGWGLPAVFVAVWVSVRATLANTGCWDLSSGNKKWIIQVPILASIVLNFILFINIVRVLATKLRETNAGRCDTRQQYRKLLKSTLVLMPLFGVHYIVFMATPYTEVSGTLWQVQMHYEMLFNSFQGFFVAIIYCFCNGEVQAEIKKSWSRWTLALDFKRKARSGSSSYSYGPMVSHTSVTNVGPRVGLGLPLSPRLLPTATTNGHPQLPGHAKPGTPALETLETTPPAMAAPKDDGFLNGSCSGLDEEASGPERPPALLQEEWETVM
Experimental: as §1, §2, §3

rat renal membranes = details: cited from earlier work

Substance: PTH(15–34)
activation of AC (AC): does not activate AC | binding to the receptor (the receptor): binds weakly

Substance: PTHrP(1–16) (AVSEHQLLHDKGKSIQ; Parathyroid hormone-related protein; UniProt P12272 37-52, looked up, fragment) [short NH2-terminal PTHrP peptide investigated previously]
activity in AC assays (rat PTH-1 receptor): inactive

cAMP dose-response relative to the intact wildtype receptor (hP1r-de1NT): right-shifted response | cAMP dose-response relative to the intact wildtype receptor (hP1R-Tether(1–9)): right-shifted response | cAMP dose-response relative to the intact wildtype receptor (hP1R-[R^11]-Tether(1–11)): right-shifted response
Substance: [Ala^1,3,10,12,Arg^11, Tyr^34]hPTH(1–34)NH2 [Q-PTH(1–34)]
maximum cAMP response (hP1r-de1NT): capable of producing a maximum cAMP response | dose-response curves for the hP1R-Tether constructs relative to hP1R-de1NT (hP1R-Tether constructs): parallel and left-shifted | cAMP response of the alanine mutants of hP1R-[R11]-Tether(1–11) to exogenous ligand (hP1R-Tether constructs; alanine scan mutants): responded well | maximum cAMP response (hP1R-Tether(1–9)): capable of producing a maximum cAMP response | maximum cAMP response (hP1R-[R^11]-Tether(1–11)): capable of producing a maximum cAMP response

Substance: bPTH(1–12) (AVSEIQFMHNLG; Parathyroid hormone; UniProt P01268 32-43, looked up, fragment) [short NH2-terminal PTH peptide investigated previously]
activity in adenylyl cyclase assays (rat renal membranes): inactive
